“Also recorded” adds a separate entry of the source.
Tests used:
Fasciola hepatica = assay: Ex vivo treatment of immature and adult F. hepatica (contraction, motility, viability); assay type: cell-based
Experimental: Briefly, Male Wistar rats served as the final host to obtain immature and adult stages of F. hepatica after infection with metacercariae from an Italian strain of F. hepatica. Immature flukes were collected from livers 4 weeks post-infection. Adult flukes were collected from bile ducts at 12 weeks post-infection. Worms were kept for 1 h in normal saline to allow clearance of gut contents and then used for experiments. In vitro experiments were performed utilizing a similar procedure as previously reported. Excised worms were treated with different concentrations of praziquantel, triclabendazole, BZQ/S55, S5, and S69, or DMSO as a negative control. The flukes were incubated at 37° C. in a 5% CO2 atmosphere for 72 h, and inhibitor-induced effects on worm viability were assessed using a stereomicroscope at 10× magnification. Worm motility was assessed using the following scores: 3 (normal motility), 2 (reduced motility), 1 (minimal and sporadic movements), and 0 (no movement even upon mechanical stimulation with forceps; considered dead). Representative results from these studies are shown FIGS. 17A-L.

S. mansoni [1] = assay: Adult schistosome movement assay ex vivo (contraction and paralysis); assay type: cell-based, Schistosoma mansoni
Experimental: It was observed that N-amidoquinazolinones contract S. mansoni in a manner similar to the channel activator (and standard of treatment) praziquantel. Adult schistosomes were harvested from the mesenteric vasculature of female Swiss Webster mice previously infected (˜49 days earlier). Harvested schistosomes were washed in RPMI 1640 supplemented with 5% heat inactivated FBS, HEPES, and penicillin-streptomycin. After isolation, worms were incubated overnight in vented petri dishes. Movement assays were performed using male and female worms in six well dishes (˜5 individual worms/3 ml media per well). Schistosomes were treated with a molecule such as compound 4, and video recordings of worm motility were captured using a stereomicroscope coupled to a CCD camera. […] It was also observed that 2-amidoacrylates or 2-amidoacrylamides contract S. mansoni in a manner similar to the channel activator (and standard of treatment) praziquantel. The worm mobility assay performed in FIG. 13 is same as that performed in FIG. 3. Briefly, adult schistosomes were harvested from the mesenteric vasculature of female Swiss Webster mice previously infected (˜49 days earlier). Harvested schistosomes were washed in RPMI 1640 supplemented with 5% heat inactivated FBS, HEPES, and penicillin-streptomycin. After isolation, worms were incubated overnight in vented petri dishes. […]

S. mansoni [2] = assay: Electron microscopy of tegument of treated S. mansoni; assay type: cell-based, Schistosoma mansoni; conditions: FIG. 17H, 17I
S. mansoni [3] = assay: Murine model of schistosomiasis, worm burden; assay type: in vivo, mice; conditions: 50 mg/kg intraperitoneal 1× daily for 3 days, FIG. 16; for worm burden: Female Swiss Webster mice, 7 weeks post-infection, recovery four days after first treatment
Experimental: (§1) All animal experiments followed ethical regulations approved by the MCW IACUC committee. At 7 weeks post-infection, mice were randomly sorted into 4 groups of 13 mice. One group was left untreated as a control. A second group was treated with vehicle (a mixture of DMSO/PEG400/H2O). A third group was treated with praziquantel (50 mg/kg, intraperitoneal, 1× daily) for 3 days in a row. In addition, a fourth group was treated with BZQ/S55 in the same fashion as praziquantel. Four days after the first treatment, the mice were euthanized, and the mesenteric vasculature was dissected in the usual fashion to recover schistosomes. The worm burden from each mouse was individually plotted (FIG. 16). There was no significant difference between untreated mice and mice treated with vehicle, confirming that the vehicle the drugs were dosed in had no effect on worm burden.

[4] = Toxicity observation in treated mice of the schistosomiasis model; assay type: in vivo; conditions: 50 mg/kg intraperitoneal 1× daily for 3 days
Experimental: as §1

F. hepatica = assay: Electron microscopy of tegument of treated F. hepatica; assay type: cell-based, Fasciola hepatica; conditions: FIGS. 17K and 17L
Description: FIGS. 17A-L show representative BZQ/S55 ex vivo activities on Fasciola hepatica adults and immature worms.

| SMILES | effect on Fasciola hepatica (Fasciola hepatica; praziquantel 50 μM, FIG. 17B) | effect on Schistosomes (S. mansoni [1]; Praziquantel 500 nM, FIG. 17A) | tegument of S. mansoni in electron microscopy image (S. mansoni [2]) | worm burden (S. mansoni [3]) | ex vivo activity on Fasciola hepatica adults and immature worms (Fasciola hepatica; immature (4 weeks post-infection) and adult (12 weeks) flukes from rats) | effect on Fasciola hepatica (Fasciola hepatica; treated with BZQ/S55, FIG. 17C) | effect on Schistosomes (S. mansoni [1]; treated with BZQ/S55, FIG. 17C) | efficacy compared with praziquantel, the standard of treatment (S. mansoni [3]) | toxicity [4] | tegument of F. hepatica in electron microscopy image (F. hepatica) |
| --- | --- | --- | --- | --- | --- | --- | --- | --- | --- | --- |
| O=C(C1CCCCC1)N1CC(=O)N2CCc3ccccc3C2C1 (stereo not drawn) [Praziquantel, praziquantel, reference compound] | Neither treatment has an effect | rapid, spastic paralysis | tegument was destroyed | significant reduction in worm burden |  |  |  |  |  |  |
| O=C(Nn1c(-c2cccc(Cl)c2)nc2ccccc2c1=O)c1ccccc1 [BZQ/S55, N-(2-(3-chlorophenyl)-4-oxoquinazolin-3(4H)-yl)benzamide] |  |  | tegument was destroyed | significant reduction in worm burden | active ex vivo | Rapid, sustained contraction and paralysis | mimics praziquantel on schistosomes; also recorded: Rapid, sustained contraction and paralysis | as effective as praziquantel | no toxicity was noticed | notable tegument damage |

From patent US20260007674A1, “Novel Chemotypes for Treating Parasitic Diseases and Methods of Use” (The Medical College of Wisconsin, Inc., priority 2022, published 2026)
